In one data set the target is cannabinoid CB2 receptor (Homo sapiens, UniProt P34972). The data set can be described thus: [3H]CP55940 radioligand displacement assay CB2. The following applies: at 10 μM. Type of data set: binding. (In general: In a radioligand displacement assay an active substance lowers the binding of a labelled ligand.)
Another data set has as its target T1, FAAH (Mus musculus, UniProt O08914).
T1 sequence (O08914 1-579): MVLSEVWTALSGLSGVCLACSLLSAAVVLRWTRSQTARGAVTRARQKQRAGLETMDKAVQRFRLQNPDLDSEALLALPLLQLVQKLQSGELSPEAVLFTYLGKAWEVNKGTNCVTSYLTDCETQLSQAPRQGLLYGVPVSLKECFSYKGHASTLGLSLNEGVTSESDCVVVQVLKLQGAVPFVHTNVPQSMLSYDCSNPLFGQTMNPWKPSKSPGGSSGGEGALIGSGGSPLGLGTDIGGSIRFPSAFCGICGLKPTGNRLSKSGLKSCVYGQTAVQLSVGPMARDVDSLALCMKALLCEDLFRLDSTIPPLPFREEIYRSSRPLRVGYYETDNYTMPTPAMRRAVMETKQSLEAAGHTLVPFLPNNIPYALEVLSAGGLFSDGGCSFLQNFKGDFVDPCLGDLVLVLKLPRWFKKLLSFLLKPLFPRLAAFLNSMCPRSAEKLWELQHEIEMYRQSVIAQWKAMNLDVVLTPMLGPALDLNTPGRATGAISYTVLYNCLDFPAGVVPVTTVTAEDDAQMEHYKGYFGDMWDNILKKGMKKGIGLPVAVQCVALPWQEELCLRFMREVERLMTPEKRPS
The data set can be described thus: Gel-based ABPP, mouse brain membrane proteome. The data set is classed as biochemical. As to conditions: at 10 μM.

The target of the next data set is T2, mDAGLβ (Mus musculus, UniProt Q91WC9).
T2 sequence (Q91WC9 1-669): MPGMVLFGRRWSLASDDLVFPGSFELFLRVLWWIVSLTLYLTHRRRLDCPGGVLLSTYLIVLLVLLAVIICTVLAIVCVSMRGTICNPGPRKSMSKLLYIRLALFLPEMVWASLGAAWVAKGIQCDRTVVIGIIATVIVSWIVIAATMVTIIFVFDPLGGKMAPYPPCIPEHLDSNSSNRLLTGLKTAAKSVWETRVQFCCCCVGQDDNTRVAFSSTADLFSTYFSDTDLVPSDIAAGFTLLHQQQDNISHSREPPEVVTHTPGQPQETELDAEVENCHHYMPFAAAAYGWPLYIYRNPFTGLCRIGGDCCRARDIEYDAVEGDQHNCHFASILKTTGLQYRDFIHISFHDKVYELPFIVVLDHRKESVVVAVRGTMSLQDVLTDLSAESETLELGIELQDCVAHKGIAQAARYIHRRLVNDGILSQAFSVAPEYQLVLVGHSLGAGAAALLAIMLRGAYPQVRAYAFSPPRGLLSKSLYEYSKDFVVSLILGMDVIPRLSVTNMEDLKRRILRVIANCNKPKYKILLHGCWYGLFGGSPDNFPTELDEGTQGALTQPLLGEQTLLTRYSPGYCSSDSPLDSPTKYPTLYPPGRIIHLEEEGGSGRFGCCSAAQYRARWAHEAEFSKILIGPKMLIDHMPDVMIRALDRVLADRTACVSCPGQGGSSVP
The data set can be described thus: Surrogate substrate-based fluorescence assay DAGLβ. Type of data set: biochemical.

In another data set the target is T3, human MAGL (Homo sapiens, UniProt Q99685).
T3 sequence (Q99685 1-303): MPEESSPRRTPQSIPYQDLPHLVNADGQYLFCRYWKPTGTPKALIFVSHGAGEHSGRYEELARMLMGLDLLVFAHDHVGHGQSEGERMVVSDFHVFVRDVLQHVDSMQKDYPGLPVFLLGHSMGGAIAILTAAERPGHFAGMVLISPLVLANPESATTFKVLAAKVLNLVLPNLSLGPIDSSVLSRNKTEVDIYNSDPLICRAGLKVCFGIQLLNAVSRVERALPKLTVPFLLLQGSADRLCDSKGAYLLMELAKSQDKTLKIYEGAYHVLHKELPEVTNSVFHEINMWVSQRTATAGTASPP
The data set can be described thus: Natural substrate-based fluorescence assay MAGL. The data set is classed as biochemical.

Another data set deals with T4, ABHD6 (Mus musculus, UniProt Q8R2Y0).
T4 sequence (Q8R2Y0 1-336): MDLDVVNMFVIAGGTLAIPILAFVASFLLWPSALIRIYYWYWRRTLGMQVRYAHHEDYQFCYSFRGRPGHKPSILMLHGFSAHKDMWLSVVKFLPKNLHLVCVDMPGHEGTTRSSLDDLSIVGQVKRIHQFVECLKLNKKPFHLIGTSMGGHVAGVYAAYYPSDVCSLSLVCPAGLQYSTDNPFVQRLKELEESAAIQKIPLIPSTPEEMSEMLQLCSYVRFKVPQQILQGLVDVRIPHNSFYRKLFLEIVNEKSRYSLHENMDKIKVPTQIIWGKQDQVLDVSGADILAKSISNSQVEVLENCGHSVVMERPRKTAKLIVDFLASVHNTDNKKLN
Briefly: Gel-based ABPP, mouse brain membrane proteome. The data set is classed as biochemical.

The subject of the next data set is Neuro-2a cells. The data set can be described thus: Live cell count with trypan blue. Type of data set: cell-based, mouse. As to conditions: 10 μM, 2 h.
Data set [1] is described as follows: Kinetic aqueous solubility. The data set is classed as physicochemical. The following applies: phosphate buffer pH 6.5.
Data set [2] can be described thus: Microsomal clearance, human. Type of data set: in vitro ADME. The following applies: 1 μM.
The nature of data set [3]: Microsomal clearance, mouse. As to conditions: 1 μM. Type of data set: in vitro ADME.
Data set [4] can be described thus: Hepatocyte clearance, human. The data set is classed as in vitro ADME. The following applies: 1 μM.
The nature of data set [5]: Hepatocyte clearance, mouse. The following applies: 1 μM. Type of data set: in vitro ADME.
In a further data set the target is human PGP-transporter (Homo sapiens, UniProt P08183). Briefly: P-glycoprotein active efflux assay, human. The data set is classed as in vitro ADME.
Chain of human PGP-transporter (P08183 whole entry): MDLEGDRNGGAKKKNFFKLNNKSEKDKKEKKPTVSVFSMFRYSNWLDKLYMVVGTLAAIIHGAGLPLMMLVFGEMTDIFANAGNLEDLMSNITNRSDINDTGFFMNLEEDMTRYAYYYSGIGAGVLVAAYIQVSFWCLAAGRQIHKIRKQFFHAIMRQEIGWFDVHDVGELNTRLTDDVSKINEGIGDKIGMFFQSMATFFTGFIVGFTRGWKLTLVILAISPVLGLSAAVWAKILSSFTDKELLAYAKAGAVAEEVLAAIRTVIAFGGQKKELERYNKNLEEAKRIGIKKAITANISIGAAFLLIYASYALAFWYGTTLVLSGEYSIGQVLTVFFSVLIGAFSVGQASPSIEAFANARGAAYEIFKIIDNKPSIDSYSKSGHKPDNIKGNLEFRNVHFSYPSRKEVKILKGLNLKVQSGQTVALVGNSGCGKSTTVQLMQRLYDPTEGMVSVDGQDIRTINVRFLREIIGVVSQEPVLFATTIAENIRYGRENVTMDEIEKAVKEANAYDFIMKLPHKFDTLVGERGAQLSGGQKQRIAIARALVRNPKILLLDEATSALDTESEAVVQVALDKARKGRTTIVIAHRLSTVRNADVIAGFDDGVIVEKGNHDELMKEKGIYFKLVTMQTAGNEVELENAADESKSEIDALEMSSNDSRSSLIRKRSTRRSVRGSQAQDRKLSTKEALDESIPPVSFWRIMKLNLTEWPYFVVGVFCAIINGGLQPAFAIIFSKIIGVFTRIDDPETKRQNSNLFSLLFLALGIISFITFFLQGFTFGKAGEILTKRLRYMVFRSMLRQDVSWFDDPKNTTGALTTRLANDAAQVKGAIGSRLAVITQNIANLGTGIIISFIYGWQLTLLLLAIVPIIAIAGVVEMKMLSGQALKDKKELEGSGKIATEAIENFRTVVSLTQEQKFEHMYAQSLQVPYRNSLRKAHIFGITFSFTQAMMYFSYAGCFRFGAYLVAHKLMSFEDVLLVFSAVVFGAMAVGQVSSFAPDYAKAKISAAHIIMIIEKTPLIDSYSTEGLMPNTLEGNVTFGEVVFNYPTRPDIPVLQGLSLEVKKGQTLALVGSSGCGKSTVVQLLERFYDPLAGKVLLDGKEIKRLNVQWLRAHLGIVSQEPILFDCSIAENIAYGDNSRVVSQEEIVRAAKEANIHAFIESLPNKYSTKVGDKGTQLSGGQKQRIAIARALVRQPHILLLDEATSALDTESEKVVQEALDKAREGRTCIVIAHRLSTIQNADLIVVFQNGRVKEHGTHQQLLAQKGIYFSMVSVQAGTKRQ

In brackets after ≈: the same amount, converted by molar mass.

Chain of cannabinoid CB2 receptor (P34972 whole entry): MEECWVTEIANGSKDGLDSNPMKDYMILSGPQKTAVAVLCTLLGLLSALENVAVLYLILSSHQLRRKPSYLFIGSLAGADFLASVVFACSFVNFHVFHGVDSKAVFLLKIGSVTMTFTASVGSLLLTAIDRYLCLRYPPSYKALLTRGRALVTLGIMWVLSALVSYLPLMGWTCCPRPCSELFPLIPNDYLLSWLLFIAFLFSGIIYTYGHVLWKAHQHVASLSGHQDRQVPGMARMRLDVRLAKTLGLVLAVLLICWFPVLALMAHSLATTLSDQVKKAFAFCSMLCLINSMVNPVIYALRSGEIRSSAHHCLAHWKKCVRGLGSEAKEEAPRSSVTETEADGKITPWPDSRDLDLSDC

Usually aqueous solubility stands for the dissolved amount per volume that the medium holds. For the compound `O=C(NCC1CC1)c1cc(N2CC[C@H](O)C2)nc(N2CCC[C@@H](c3ccccc3)C2)n1` [LEI-401], the “inhibitory activity, cannabinoid receptor type 2” value on cannabinoid CB2 receptor is reported as “No inhibitory activities”. In addition, the “inhibitory activity, FAAH” value against FAAH is given as “No inhibitory activities”. In addition, the “inhibition of DAGLβ” value at mDAGLβ was “did not inhibit”. In addition, the “inhibition of MAGL” value against human MAGL is recorded as “did not inhibit”. Also, on ABHD6, the “inhibition of ABHD6” value is on record as “did not inhibit”. Moreover, in the data set on Neuro-2a cells, the cell viability result is reported as “did not show any sign of reduced cell viability”. The compound also returned an aqueous solubility in data set [1] of 1.7 µg/mL (≈ 4.03 µM). In data set [2], the “clearance in human microsomes” value was 10 μl min^−1 mg^−1 protein. Further, in [3], the “clearance in mouse microsomes” value is 42 μl min^−1 mg^−1 protein. In addition, the “clearance in human hepatocytes” value in [4] is 6.9 μl min^−1 per 10^6 cells. Further, the “clearance in mouse hepatocytes” value in [5] was 28.8 μl min^−1 per 10^6 cells. Moreover, at human PGP-transporter, the “efflux ratio, human PGP-transporter” value was found to be 1.7.

(Values after PMC7468568 (Nature chemical biology, 2020).)
